Reference: patent US12544382B2, “2, 4, 6-tri-substituted pyrimidine compound as ATR kinase inhibitor” (BEIJING TIDE PHARMACEUTICAL CO., LTD., priority 2019, dated 2026)

What was measured:
[1] = target: ATR kinase (Homo sapiens (Human), UniProt Q13535); assay: ATR kinase activity assay (time-resolved fluorescence, p53 substrate phosphorylation); type: biochemical
Experimental: Biotinylated protein derived from p53 (Eurofins, art. No.: 14-952) was phosphorylated with ATR kinase. The amount of phosphorylated protein was determined by time-resolved fluorescence in this assay. The amount of phosphorylated protein was detected by anti-p53-phospho-(serine 15)-K-specific antibody (Cisbio, art. No.: 61GSTDLA) and d2 labeled anti-GST antibody (Cisbio, art. No. 61P08KAE). Before the experiment, the following working solution was prepared as required: 1× reaction buffer (20 mM HEPES PH8.0, 1% glycerol, 0.01% Brij-35), dilution buffer (20 mM HEPES PH8.0, 1% glycerol, 0.01% Brij-35, 5 mM DTT and 1% BSA), stop solution (20 mM HEPES PH8.0, 1% glycerol, 0.01% Brij-35, 250 mM EDTA), detection buffer (50 mM HEPES pH7.0, 150 mM NaCl, 267 mM KF, 0.1% sodium cholate, 0.01% Tween-20, 0.0125% sodium azide). The reagents used above are purchased from Sigma or Invitrogen, except for those where the manufacturer was mentioned.
Operations are as follows:
4× gradient dilution of compound solutions was prepared with 1× reaction buffer to obtain 9 compound solutions of different concentrations, and 2.5 μL 4× gradient dilution of compound solutions was added to a 384-well analysis plate (784075, Greiner). 4× p53 substrate working solution (40 nM) was prepared with 1× reaction buffer, and 2.5 μL 4× p53 substrate working solution was added to the 384-well analysis plate. 4×ATR/ATRIP working solution (12.8 ng/μL) was prepared with dilution buffer, and 2.5 μL 4×pATR/ATRIP working solution was added to the 384-well analysis plate. 4×ATP working solution (2 mM) was prepared with deionized water, 2.5 μL 4×ATP working solution was added to the 384-well analysis plate, and incubated at room temperature in dark for 30 minutes. 5 μL stop solution was added to the 384 analysis plate. Finally, 5 μL test mixture (0.084 ng/μL Anti-phospho-p53(ser15)-K and 5 ng/μL Anti-GST-d2) was added to the 384 well analysis plate, incubated overnight at room temperature, and the fluorescence signal was detected with ENVISION (Perkinelmer) instrument (excitation wavelength: 320 nm, emission wavelength: 665 nm and 615 nm). The inhibition rate in each well was calculated by the fluorescence intensity value of each hole: ER (Emission Ratio)=(Fluorescence intensity at 665 nm/Fluorescence intensity at 615 nm); inhibition rate=(ER positive-ER test compound)/(ER positive-ER negative)×100%, the IC50 value of compounds were calculated by standard parameter fitting software (GraphPad Prism 6.0).

[2] = test system: TOV21G (ovarian cancer) cells; assay: In vitro cell proliferation inhibition assay (CellTiter-Glo), TOV21G; type: cell-based, human; conditions: 120 hours
Experimental: (§1) By detecting the effect of compound on cell activity in vitro in the tumor cell lines TOV21G (ovarian cancer) and MV4-11 (leukemia), the effect of compound inhibiting cell proliferation was studied in this assay.
(§2) TOV21G cells and MV4-11 cells were purchased from American Type Culture Collection (ATCC).
TOV21G cells were cultured in MCDB105/M199 medium (containing 15% […]), and used for testing when the cell confluence reaches 85% or more. Each well of a 96-well culture plate was inoculated with about 1000 cells, cultured for 24 hours, and treated with different concentrations (0-10 μM) of compound solution to be tested in triplex. Blank wells (contains medium only) and control wells (seeded cells was not treated with drug) were set. Cells were cultured for 120 hours, 40 μL Cell Titer-Glo solution (Promega, #G7573) were added to each well, incubated with shaking for 20 min in the dark, 100 μL solution was transferred from each well to a 96-well white plate (Corning, #3917), and the luminescence value was read by Biotek Synergy H1 multifunctional microplate reader.

[3] = test system: MV4-11 (leukemia) cells; assay: In vitro cell proliferation inhibition assay (CellTiter-Glo), MV4-11; type: cell-based, human; conditions: MV4-11 cells
Experimental: as §1, §2
MV-4-11 cells were cultured in IMDM medium (containing 20% FBS), each well of a 96-well culture plate was inoculated with about 10000 cells, and treated with different concentrations (0-10 μM) of compounds to be tested in triplex. Blank wells (containing medium only) and control wells (inoculated with cells but not treated with drug) were set. Cells were cultured for 120 hours, 40 μL Cell Titer-Glo solution was added to each well, incubated with shaking for 20 min in the dark, 100 μL solution was transferred from each well to a 96-well white plate, and the luminescence value was read by Biotek Synergy H1 multifunctional microplate reader. Inhibition rate (%)=100%×(control well−test well)/(control well−blank well)

Sequence of ATR kinase (Q13535 whole entry): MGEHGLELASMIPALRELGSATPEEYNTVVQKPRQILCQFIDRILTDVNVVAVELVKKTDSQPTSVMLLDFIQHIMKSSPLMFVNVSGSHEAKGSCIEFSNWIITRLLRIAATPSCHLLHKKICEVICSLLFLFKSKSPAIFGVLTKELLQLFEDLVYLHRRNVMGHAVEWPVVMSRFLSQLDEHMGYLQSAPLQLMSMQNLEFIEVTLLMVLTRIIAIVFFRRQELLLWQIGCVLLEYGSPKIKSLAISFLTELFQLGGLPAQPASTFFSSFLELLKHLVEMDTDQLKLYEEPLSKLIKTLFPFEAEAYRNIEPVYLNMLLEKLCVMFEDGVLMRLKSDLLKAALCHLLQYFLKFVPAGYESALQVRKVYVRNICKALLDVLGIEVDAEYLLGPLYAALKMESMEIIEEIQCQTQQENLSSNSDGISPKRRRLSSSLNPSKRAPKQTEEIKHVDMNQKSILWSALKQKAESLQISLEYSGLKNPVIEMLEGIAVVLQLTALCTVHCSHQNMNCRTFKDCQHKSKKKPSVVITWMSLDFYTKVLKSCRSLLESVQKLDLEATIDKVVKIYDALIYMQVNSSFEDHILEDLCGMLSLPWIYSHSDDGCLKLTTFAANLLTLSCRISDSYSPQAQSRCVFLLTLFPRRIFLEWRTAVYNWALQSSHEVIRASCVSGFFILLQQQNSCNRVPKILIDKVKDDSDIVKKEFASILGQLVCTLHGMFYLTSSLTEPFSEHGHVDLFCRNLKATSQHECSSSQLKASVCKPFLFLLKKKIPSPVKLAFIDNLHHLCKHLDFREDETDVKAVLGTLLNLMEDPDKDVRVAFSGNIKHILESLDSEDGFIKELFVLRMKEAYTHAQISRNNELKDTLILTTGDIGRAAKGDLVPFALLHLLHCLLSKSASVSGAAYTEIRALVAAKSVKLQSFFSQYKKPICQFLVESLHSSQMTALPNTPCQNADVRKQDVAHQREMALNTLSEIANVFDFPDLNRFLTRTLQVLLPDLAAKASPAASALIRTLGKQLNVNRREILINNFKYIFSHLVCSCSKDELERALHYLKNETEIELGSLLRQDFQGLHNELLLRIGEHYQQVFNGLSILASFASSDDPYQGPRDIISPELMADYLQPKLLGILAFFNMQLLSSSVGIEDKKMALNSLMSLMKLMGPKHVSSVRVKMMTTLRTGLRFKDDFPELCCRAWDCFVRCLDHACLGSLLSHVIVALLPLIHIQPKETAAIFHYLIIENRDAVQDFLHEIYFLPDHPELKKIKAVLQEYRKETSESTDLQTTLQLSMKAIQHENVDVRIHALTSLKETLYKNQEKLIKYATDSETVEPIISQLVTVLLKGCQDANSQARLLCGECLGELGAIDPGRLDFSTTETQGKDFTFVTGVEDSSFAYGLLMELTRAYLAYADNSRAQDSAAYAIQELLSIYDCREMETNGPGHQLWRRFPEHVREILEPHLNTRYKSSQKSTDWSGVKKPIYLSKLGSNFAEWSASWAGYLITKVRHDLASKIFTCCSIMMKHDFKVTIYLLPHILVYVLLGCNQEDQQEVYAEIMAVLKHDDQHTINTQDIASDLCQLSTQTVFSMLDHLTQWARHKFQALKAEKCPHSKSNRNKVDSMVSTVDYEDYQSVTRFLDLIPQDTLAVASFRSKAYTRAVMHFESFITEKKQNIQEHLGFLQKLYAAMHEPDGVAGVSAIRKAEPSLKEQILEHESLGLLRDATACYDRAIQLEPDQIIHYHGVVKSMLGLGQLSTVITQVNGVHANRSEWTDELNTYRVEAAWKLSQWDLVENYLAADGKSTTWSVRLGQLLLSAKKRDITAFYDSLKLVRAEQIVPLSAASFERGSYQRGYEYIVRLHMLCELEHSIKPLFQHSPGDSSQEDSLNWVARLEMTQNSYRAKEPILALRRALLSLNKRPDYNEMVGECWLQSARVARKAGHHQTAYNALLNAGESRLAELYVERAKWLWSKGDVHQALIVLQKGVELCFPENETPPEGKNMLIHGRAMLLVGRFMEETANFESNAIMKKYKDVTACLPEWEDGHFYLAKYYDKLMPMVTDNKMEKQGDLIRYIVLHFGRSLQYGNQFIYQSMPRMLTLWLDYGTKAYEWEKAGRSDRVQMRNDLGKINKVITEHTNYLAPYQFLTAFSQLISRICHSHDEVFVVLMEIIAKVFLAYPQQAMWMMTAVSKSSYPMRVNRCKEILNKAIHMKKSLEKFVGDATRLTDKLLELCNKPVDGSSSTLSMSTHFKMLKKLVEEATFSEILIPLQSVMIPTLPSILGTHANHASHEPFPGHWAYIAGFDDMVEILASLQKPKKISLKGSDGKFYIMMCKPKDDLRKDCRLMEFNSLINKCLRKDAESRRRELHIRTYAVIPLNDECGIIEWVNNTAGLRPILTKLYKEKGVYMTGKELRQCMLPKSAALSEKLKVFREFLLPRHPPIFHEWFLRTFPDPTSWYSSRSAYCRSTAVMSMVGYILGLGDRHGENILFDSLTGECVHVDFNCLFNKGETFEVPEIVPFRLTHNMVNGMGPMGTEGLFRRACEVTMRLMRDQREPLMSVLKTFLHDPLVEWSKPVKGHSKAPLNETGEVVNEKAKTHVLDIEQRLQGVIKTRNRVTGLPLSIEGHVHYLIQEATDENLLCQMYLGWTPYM
Sequence of ATR kinase (Q8WXE1 whole entry partner): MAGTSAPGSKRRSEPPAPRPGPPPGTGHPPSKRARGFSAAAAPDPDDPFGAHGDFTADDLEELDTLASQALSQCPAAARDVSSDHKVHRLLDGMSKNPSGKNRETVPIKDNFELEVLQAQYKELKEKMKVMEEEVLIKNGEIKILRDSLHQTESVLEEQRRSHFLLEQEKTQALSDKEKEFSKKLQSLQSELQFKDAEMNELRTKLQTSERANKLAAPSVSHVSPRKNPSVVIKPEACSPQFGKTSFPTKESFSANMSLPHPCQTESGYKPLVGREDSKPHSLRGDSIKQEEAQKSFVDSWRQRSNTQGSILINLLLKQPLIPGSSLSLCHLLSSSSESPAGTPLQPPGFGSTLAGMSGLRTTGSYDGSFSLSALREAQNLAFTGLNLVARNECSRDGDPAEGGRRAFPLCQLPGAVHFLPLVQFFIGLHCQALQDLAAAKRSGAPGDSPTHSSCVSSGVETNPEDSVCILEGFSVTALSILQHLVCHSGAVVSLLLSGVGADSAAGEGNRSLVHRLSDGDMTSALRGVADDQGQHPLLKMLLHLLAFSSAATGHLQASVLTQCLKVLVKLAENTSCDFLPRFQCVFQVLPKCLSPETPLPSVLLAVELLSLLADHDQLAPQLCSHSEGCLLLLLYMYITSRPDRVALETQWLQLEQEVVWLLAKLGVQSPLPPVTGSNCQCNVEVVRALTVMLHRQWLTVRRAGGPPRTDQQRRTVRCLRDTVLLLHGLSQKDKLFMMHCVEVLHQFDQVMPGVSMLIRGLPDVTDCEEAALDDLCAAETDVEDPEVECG

| IC50 [1] | IC50 ([2]; Homo sapiens) | IC50 ([3]; Homo sapiens, MV4-11, 120 h) | IC50 [2] | IC50 ([3]; 120 hours) | Structure (SMILES) |
| --- | --- | --- | --- | --- | --- |
| < 1 nM | 240 nM | 170 nM | – | – | Cc1nn(C2CCNCC2)c(C(F)(F)F)c1-c1cc(N2CCOC[C@H]2C)nc(-n2c(N)nc3ccccc32)n1 [Compound D6] |
| 3 nM | 380 nM | 330 nM | – | – | CNc1nc2cc(F)ccc2n1-c1nc(-c2c(C)nn(C3CCNCC3)c2C(F)(F)F)cc(N2CCOC[C@H]2C)n1 [Compound D10] |
| 28 nM | 1200 nM | 810 nM | – | – | COc1c(-c2cc(N3CCOC[C@H]3C)nc(-c3ccnc4[nH]ccc34)n2)c(C(F)(F)F)nn1C1CCN(C)CC1 [Compound D14] |
| 1 nM | 110 nM | 80 nM | – | – | Cc1nn(C2CCNCC2)c(C(F)(F)F)c1-c1cc(N2CCOC[C@H]2C)nc(-c2cncc3[nH]ccc23)n1 [Compound D19] |
| 8 nM | – | – | 580 nM | 690 nM | CCNc1nc2cc(F)ccc2n1-c1nc(-c2c(C)nn(C3CCNCC3)c2C(F)(F)F)cc(N2CCOC[C@H]2C)n1 [Compound D23] |
| – | 1030 nM | 990 nM | – | – | CNc1nc2cc(Cl)ccc2n1-c1nc(-c2c(C)nn(C3CCNCC3)c2C(F)(F)F)cc(N2CCOC[C@H]2C)n1 [Compound D25] |
| 16 nM | – | – | 2090 nM | 410 nM | Cc1nn(C2CCNCC2)c(C(F)(F)F)c1-c1cc(N2CCOC[C@H]2C)nc(-n2cnc3cc(F)ccc32)n1 [Compound D30a] |
| 54 nM | – | – | 2220 nM | 330 nM | Cc1nn(C2CCNCC2)c(C(F)(F)F)c1-c1cc(N2CCOC[C@H]2C)nc(-n2cnc3ccc(F)cc32)n1 [Compound D30b] |
| 5 nM | – | – | 140 nM | 230 nM | Cc1nn(C2CCNCC2)c(C(F)(F)F)c1-c1cc(N2CCOC[C@H]2C)nc(-n2c(NC(=O)C3CC3)nc3ccccc32)n1 [Compound D38] |
| 3 nM | 860 nM | 1230 nM | – | – | CNc1nc2cc(F)ccc2n1-c1nc(-c2c(C)nn(CC3CCCNC3)c2C(F)(F)F)cc(N2CCOC[C@H]2C)n1 (some centres unmarked) [Compound D39] |
| 5 nM | 720 nM | 580 nM | – | – | CNc1nc2ccccc2n1-c1nc(-c2c(C)nn(CC3CCCNC3)c2C(F)(F)F)cc(N2CCOC[C@H]2C)n1 (some centres unmarked) [Compound D40] |
| 29 nM | 940 nM | 570 nM | – | – | CNc1nc2cc(F)ccc2n1-c1nc(-c2c(C)nn(CS(C)(=O)=O)c2C(F)(F)F)cc(N2CCOC[C@H]2C)n1 [Compound D41] |
| 19 nM | 210 nM | 540 nM | – | – | CNc1nc2ccccc2n1-c1nc(-c2c(C)nn(CS(C)(=O)=O)c2C(F)(F)F)cc(N2CCOC[C@H]2C)n1 [Compound D43] |
| 34 nM | 790 nM | 680 nM | – | – | CNc1nc2ccccc2n1-c1nc(-c2c(C(F)(F)F)nn(CS(C)(=O)=O)c2C)cc(N2CCOC[C@H]2C)n1 [Compound D44] |
| 5 nM | – | – | 600 nM | 550 nM | Cc1c(-c2cc(N3CCOC[C@H]3C)nc(-c3cc(F)cc4[nH]ccc34)n2)c(C(F)(F)F)nn1C1CCNCC1 [Compound D47] |

Continued, molecule first:

| Structure (SMILES) | IC50 [1] | IC50 ([2]; Homo sapiens) | IC50 ([3]; Homo sapiens, MV4-11, 120 h) | IC50 [2] | IC50 ([3]; 120 hours) |
| --- | --- | --- | --- | --- | --- |
| Cc1c(-c2cc(N3CCOC[C@H]3C)nc(-c3ccnc4[nH]ccc34)n2)c(C(F)(F)F)nn1C1CCCNC1 (single isomer, unassigned) [Compound D13] | < 1 nM | 800 nM | 250 nM | – | – |
| Cc1c(-c2cc(N3CCOC[C@H]3C)nc(-c3ccnc4[nH]ccc34)n2)c(C(F)(F)F)nn1C1CCNCC1 [Compound D2] | 6 nM | 920 nM | 780 nM | – | – |
| COc1cc(-c2nc(-c3c(C)nn(C4CCNCC4)c3C(F)(F)F)cc(N3CCOC[C@H]3C)n2)c2cc[nH]c2n1 [Compound D3] | 31 nM | – | – | 280 nM | 290 nM |
| Cc1nn(C2CCN(C)CC2)c(C)c1-c1cc(N2CCOC[C@H]2C)nc(-c2ccnc3[nH]ccc23)n1 [Compound D4] | 6 nM | – | – | 330 nM | 190 nM |
| Cc1nn(C2CCNCC2)c(C(F)(F)F)c1-c1cc(N2CCOC[C@H]2C)nc(-n2c(N)nc3cc(F)ccc32)n1 [Compound D7] | 1 nM | 460 nM | 310 nM | – | – |
| CC(=O)Nc1nc2ccccc2n1-c1nc(-c2c(C)nn(C3CCNCC3)c2C(F)(F)F)cc(N2CCOC[C@H]2C)n1 [Compound D8] | 3 nM | 430 nM | 220 nM | – | – |
| Cc1nn(C2CCNCC2)c(C(F)(F)F)c1-c1nc(-c2ccnc3[nH]ccc23)nc(N2CCOC[C@H]2C)c1F [Compound D11] | 8 nM | – | – | 640 nM | 370 nM |
| Cc1c(-c2cc(N3CCOC[C@H]3C)nc(-c3ccnc4[nH]ccc34)n2)c(C(F)(F)F)nn1C1CCCNC1 (some centres unmarked) [Compound D12] | 3 nM | 280 nM | 290 nM | – | – |
| CNc1nc2cc(F)ccc2n1-c1nc(-c2c(C(F)(F)F)nn(C3CCNCC3)c2C)cc(N2CCOC[C@H]2C)n1 [Compound D16] | 82 nM | – | – | 1050 nM | 1360 nM |
| Cc1c(-c2cc(N3CCOC[C@H]3C)nc(-c3cccc4[nH]ccc34)n2)c(C(F)(F)F)nn1C1CCNCC1 [Compound D18] | < 1 nM | 510 nM | 280 nM | – | – |
| Cc1c(-c2cc(N3CCOC[C@H]3C)nc(-c3cncc4[nH]ccc34)n2)c(C(F)(F)F)nn1C1CCNCC1 [Compound D20] | < 1 nM | 160 nM | 70 nM | – | – |
| Cc1nn(C2CCNCC2)c(C(F)(F)F)c1-c1cc(N2CCOC[C@H]2C)nc(-n2c(NC(=O)C3CC3)nc3ccccc32)n1 [Compound D21] | 2 nM | 140 nM | 190 nM | – | – |
| CNc1nc2ccc(F)cc2n1-c1nc(-c2c(C)nn(C3CCNCC3)c2C(F)(F)F)cc(N2CCOC[C@H]2C)n1 [Compound D22] | 16 nM | 850 nM | 920 nM | – | – |
| CNc1nc2ncccc2n1-c1nc(-c2c(C)nn(C3CCNCC3)c2C(F)(F)F)cc(N2CCOC[C@H]2C)n1 [Compound D26] | 12 nM | – | – | 3580 nM | 3090 nM |
| CNc1nc2cc(F)ccc2n1-c1nc(-c2c(C)nn(C3CCNCC3)c2C(F)(F)F)c(F)c(N2CCOC[C@H]2C)n1 [Compound D27] | 8 nM | – | – | 720 nM | 970 nM |
| CNc1nc2cc(F)ccc2n1-c1nc(-c2c(C(F)(F)F)nn(C3CCCNC3)c2C)cc(N2CCOC[C@H]2C)n1 (some centres unmarked) [Compound D33] | 13 nM | – | – | 1450 nM | 1310 nM |
| CNc1nc2cc(F)ccc2n1-c1nc(-c2c(C(F)(F)F)nn(CS(C)(=O)=O)c2C)cc(N2CCOC[C@H]2C)n1 [Compound D42] | 97 nM | 2010 nM | 1730 nM | – | – |
| CNc1nc2ccccc2n1-c1nc(-c2c(C(F)(F)F)nn(C3CCCNC3)c2C)cc(N2CCOC[C@H]2C)n1 (some centres unmarked) [Compound D45] | 10 nM | – | – | 920 nM | 640 nM |
| Cc1nn(C2CCNCC2)c(C(F)(F)F)c1-c1cc(N2CCOC[C@H]2C)nc(-n2cnc3ccccc32)n1 [Compound D46] | 6 nM | – | – | 1330 nM | 530 nM |
